# Data as given in patent publication US11407721B2, “CIS-morpholinone and other compounds as MDM2 inhibitors for the treatment of cancer” (AMGEN INC., priority 2013, dated 2022).
# Where two headings read alike, the source gives them in different places.
# Experiments:
# [1] = biological target: interaction between HDM2 and p53 (GST-hMDM2 (1-188) / biotinylated-p53 (1-83)) (Homo sapiens (Human), UniProt Q00987); experiment: HTRF2 Assay (improved HTRF assay); assay type: binding
# [2] = biological target: T1, interaction between HDM2 and p53 (GST-hMDM2 / biotinylated-p53) (Homo sapiens (Human), UniProt Q00987); details: read-out: HTRF3 IC50; HTRF1 conditions except 20 uL GST-hMDM2 incubated with 1.0 ul diluted compound
# T1 sequence (Q00987 1-188): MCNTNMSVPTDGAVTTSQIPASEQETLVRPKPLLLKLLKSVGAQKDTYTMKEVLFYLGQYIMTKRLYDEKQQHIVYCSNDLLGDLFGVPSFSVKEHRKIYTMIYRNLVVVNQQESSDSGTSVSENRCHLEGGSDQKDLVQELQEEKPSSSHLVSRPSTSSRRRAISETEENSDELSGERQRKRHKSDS
# [3] = biological target: interaction between HDM2 and p53 (GST-hMDM2 aa 1-188 / biotinylated-p53 aa 1-83) (Homo sapiens (Human), UniProt Q00987)
# interaction between HDM2 and p53 (GST-hMDM2 aa 1-188 / biotinylated-p53 aa 1-83), sequence (Q00987 1-188): as above
# [4] = biological target: T1, interaction between HDM2 and p53 (GST-hMDM2 / biotinylated-p53); experiment: biochemical
# [5] = 0.2 nM GST-hMDM2 (1-188), 0.5 nM biotinylated-p53 (1-83), 100 mM KF, read-out: HTRF2 IC50
# interaction between HDM2 and p53 (GST-hMDM2 (1-188) / biotinylated-p53 (1-83)), sequence (Q00987 1-188): as above
"IC50 [1, 5] [µM]",IC50 [2] [µM],IC50 [3] [µM],IC50 [4] [µM],IC50 [1] [µM],Molecule
22.4,–,4.76,–,–,"O=C1CS(=O)(=O)[C@@H](c2cccc(Cl)c2)[C@@H](c2ccc(Cl)cc2)N1CC1CC1 [(5R,6S)-6-(3-chlorophenyl)-5-(4-chlorophenyl)-4-(cyclopropylmethyl)-3-thiomorpholinone 1,1-dioxide]"
–,–,11.8,38.6,–,"CN1C(=O)CO[C@@H](c2ccc(Cl)cc2)[C@H]1c1ccc(Cl)cc1 (mixture of isomers) [(5R,6S)-5,6-Bis(4-chlorophenyl)-4-methylmorpholin-3-one and (5S,6R)-5,6-bis(4-chlorophenyl)-4-methylmorpholin-3-one]"
31.6,–,–,> 100,–,"O=C1CO[C@@H](c2ccc(Cl)cc2)[C@@H](c2ccc(Cl)cc2)N1c1ccccc1 [(5R,6S)-5,6-bis(4-chlorophenyl)-4-phenyl-3-morpholinone]"
–,–,1.56,–,–,"CC(C)N1C(=O)CS(=O)(=O)[C@@H](c2cccc(Cl)c2)[C@H]1c1ccc(Cl)cc1 [(5R,6S)-6-(3-chlorophenyl)-5-(4-chlorophenyl)-4-(1-methylethyl)-3-thiomorpholinone 1,1-dioxide]"

# The next lines start with the molecule.
Molecule,"IC50 [1, 5] [µM]",IC50 [2] [µM],IC50 [3] [µM],IC50 [4] [µM],IC50 [1] [µM]
CCC[C@H](C(=O)N1CCN(CCC(=O)O)CC1)N1C(=O)CO[C@@H](c2ccc(Cl)cc2)[C@H]1c1ccc(Cl)cc1,3.6,4.59,–,–,–
"CCC[C@H](c1nnn[nH]1)N1C(=O)[C@H](Cc2ccc(C#N)c(F)c2)O[C@@H](c2ccc(Cl)cc2)[C@H]1c1ccc(Cl)cc1 [Example 35, 4-(((2S,5R,6S)-4-((R)-1-(1H-Tetrazol-5-yl)butyl)-5,6-bis(4-chlorophenyl)-3-oxomorpholin-2-yl)methyl)-2-fluorobenzonitrile]",0.473,0.403,–,–,–
CS(=O)(=O)OCC[C@H]1O[C@H](c2cccc(Cl)c2)[C@H](c2ccc(Cl)cc2)N(CC2CC2)C1=O,4.81,6.86,–,–,–
CN(C)C(=O)C[C@H]1O[C@H](c2cccc(Cl)c2)[C@H](c2ccc(Cl)cc2)N(CC2CC2)C1=O,7.56,2.78,–,–,–
"CCCC[C@H](C(=O)O)N1C(=O)CO[C@@H](c2ccc(Cl)cc2)[C@H]1c1ccc(Cl)cc1 [(2R)-2-((2S,3R)-2,3-bis(4-chlorophenyl)-5-oxo-4-morpholinyl)hexanoic acid]",–,–,–,27.5,23.4
"(2R,5S,6R)-5,6-Bis(4-chlorophenyl)-4-methyl-2-(pyridin-4-ylmethyl)morpholin-3-one and (2S,5R,6S)-5,6-bis(4-chlorophenyl)-4-methyl-2-(pyridin-4-ylmethyl)morpholin-3-one [Example 41]",4.53,5.6,–,–,–
CN1C(=O)[C@@H](Cc2ccc(C(N)=O)cc2)O[C@H](c2ccc(Cl)cc2)[C@@H]1c1ccc(Cl)cc1,3.66,5.8,–,–,–
CN1C(=O)[C@@H](Cc2cccc(C(N)=O)c2)O[C@H](c2ccc(Cl)cc2)[C@@H]1c1ccc(Cl)cc1,7.39,12.4,–,–,–
"C[C@@H]1O[C@@H](c2ccc(Br)cc2)[C@@H](c2ccc(Br)cc2)N(C)C1=O [(2S,5R,6S)-5,6-bis(4-bromophenyl)-2,4-dimethyl-3-morpholinone]",22.7,–,–,23.2,–
